Assay results taken from patent publication US20230028658A1, “EXPANDED DOSAGE REGIMENS FOR INTEGRIN INHIBITORS” (Pliant Therapeutics, Inc., priority 2021, published 2023).

molecular target: recombinant human integrin αvβ6 (Homo sapiens, UniProt P06756+P18564); experiment: Solid phase integrin αvβ6 binding assay; conditions: read-out: αvβ6 Inhibition IC50 (nM) - range
Procedure: Microplates were coated with recombinant human integrin αvβ6 (2 μg/mL) in PBS (100 μL/well 25° C., overnight). The coating solution was removed, washed with wash buffer (0.05% Tween 20; 0.5 mM MnCl2; in 1×TBS). The plate was blocked with 200 μL/well of Block Buffer (1% BSA; 5% sucrose; 0.5 mM MnCl2; in 1×TBS) at 37° C. for 2 h. Dilutions of testing compounds and recombinant TGFβ1 LAP (0.67 μg/mL) in binding buffer (0.05% BSA; 2.5% sucrose; 0.5 mM MnCl2; in 1×TBS) were added. The plate was incubated for 2 hours at 25° C., washed, and incubated for 1 hour with Biotin-Anti-hLAP. Bound antibody was detected by peroxidase-conjugated streptavidin. The IC50 values for testing compounds were calculated by a four-parameter logistic regression.
The compounds tested were compound samples prepared according to procedures described in the Synthetic Examples section, with the stereochemical purity as indicated in the Examples.

recombinant human integrin αvβ6, sequence (P06756 31-992 limits assumed): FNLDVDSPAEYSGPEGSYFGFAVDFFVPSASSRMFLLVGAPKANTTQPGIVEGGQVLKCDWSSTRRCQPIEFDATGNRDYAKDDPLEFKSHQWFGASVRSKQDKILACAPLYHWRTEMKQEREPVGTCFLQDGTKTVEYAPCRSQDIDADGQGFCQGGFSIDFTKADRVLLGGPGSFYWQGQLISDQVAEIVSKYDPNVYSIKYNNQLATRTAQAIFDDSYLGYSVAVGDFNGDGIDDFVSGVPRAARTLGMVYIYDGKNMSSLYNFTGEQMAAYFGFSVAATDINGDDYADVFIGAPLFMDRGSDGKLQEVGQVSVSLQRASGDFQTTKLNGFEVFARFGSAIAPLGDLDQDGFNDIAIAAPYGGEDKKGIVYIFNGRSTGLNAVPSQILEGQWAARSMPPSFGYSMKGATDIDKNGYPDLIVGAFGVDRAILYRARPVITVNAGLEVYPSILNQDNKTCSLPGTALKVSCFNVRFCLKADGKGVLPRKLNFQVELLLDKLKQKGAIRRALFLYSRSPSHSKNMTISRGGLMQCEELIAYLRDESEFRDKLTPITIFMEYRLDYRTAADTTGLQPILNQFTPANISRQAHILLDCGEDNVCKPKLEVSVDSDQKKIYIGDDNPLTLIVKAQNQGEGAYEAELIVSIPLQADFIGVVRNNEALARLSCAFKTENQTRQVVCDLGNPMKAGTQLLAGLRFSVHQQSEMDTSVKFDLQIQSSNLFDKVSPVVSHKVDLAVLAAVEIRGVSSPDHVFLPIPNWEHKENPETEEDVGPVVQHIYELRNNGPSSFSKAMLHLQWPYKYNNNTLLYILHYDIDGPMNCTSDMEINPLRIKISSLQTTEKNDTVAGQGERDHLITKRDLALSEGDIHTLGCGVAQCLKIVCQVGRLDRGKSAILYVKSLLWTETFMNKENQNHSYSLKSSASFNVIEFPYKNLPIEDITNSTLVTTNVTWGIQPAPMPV
recombinant human integrin αvβ6, sequence (P18564 22-707 limits assumed): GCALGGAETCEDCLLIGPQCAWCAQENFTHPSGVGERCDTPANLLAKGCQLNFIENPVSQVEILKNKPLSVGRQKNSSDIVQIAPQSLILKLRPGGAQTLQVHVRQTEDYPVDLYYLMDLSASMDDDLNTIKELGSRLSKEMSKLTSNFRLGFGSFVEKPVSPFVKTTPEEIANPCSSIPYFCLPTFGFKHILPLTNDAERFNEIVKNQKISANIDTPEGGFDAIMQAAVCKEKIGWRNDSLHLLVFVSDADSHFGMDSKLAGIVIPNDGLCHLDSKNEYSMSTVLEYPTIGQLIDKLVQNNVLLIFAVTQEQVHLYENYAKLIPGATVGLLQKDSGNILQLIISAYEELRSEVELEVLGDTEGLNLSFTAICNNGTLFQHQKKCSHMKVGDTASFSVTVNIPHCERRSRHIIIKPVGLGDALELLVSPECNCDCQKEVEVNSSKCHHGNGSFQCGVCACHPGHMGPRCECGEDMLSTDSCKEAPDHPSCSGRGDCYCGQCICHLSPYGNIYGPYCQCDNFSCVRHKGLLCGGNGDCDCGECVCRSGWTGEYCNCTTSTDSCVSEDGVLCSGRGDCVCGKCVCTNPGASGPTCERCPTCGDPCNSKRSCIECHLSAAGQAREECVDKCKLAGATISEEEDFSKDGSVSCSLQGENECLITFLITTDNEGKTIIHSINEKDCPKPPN

IC50 [nM]	Structure (SMILES)
250 to 1000	O=C(O)[C@H](CCN(CCCCc1ccc2c(n1)NCCC2)C1CC1)Nc1ccncn1 [Compound 2, (S)-4-(cyclopropyl(4-(5,6,7,8-tetrahydro-1,8-naphthyridin-2-yl)butyl)amino)-2-(pyrimidin-4-ylamino) butanoic acid]
< 50	COCCN(CCCCc1ccc2c(n1)NCCC2)CC[C@H](Nc1ncnc2cc(F)ccc12)C(=O)O [Compound 7, (S)-2-((7-fluoroquinazolin-4-yl)amino)-4-((2-methoxyethyl) (4-(5,6,7,8-tetrahydro-1,8-naphthyridin-2-yl)butyl)amino) butanoic acid]
< 50	COCCN(CCCCc1ccc2c(n1)NCCC2)CC[C@H](Nc1ncnc2cccnc12)C(=O)O [Compound 16, (S)-4-((2-methoxyethyl) (4-(5,6,7,8-tetrahydro-1,8-naphthyridin-2-yl)butyl)amino)-2-(pyrido[3,2-d]pyrimidin-4-ylamino) butanoic acid]
< 50	CO[C@@H](C)CN(CCCCc1ccc2c(n1)NCCC2)CC[C@H](Nc1ncnc2ccccc12)C(=O)O [Compound 25, (S)-4-(((S)-2-methoxypropyl) (4-(5,6,7,8-tetrahydro-1,8-naphthyridin-2-yl)butyl)amino)-2-(quinazolin-4-ylamino) butanoic acid]
< 50	CS(=O)(=O)CCN(CCCCc1ccc2c(n1)NCCC2)CC[C@H](Nc1ncnc2ccccc12)C(=O)O [Compound 27, (S)-4-((2-(methylsulfonyl)ethyl) (4-(5,6,7,8-tetrahydro-1,8-naphthyridin-2-yl)butyl)amino)-2-(quinazolin-4-ylamino) butanoic acid]
< 50	O=C(O)[C@H](CCN(CCCCc1ccc2c(n1)NCCC2)CCC(F)F)Nc1ncnc2ccccc12 [Compound 29, (S)-4-((3,3-difluoropropyl) (4-(5,6,7,8-tetrahydro-1,8-naphthyridin-2-yl)butyl)amino)-2-(quinazolin-4-ylamino) butanoic acid]
> 1000	COCCN(CCCCc1ccc2c(n1)NCCC2)CC[C@H](Nc1nccc2ccccc12)C(=O)O [Compound 34, (S)-2-(isoquinolin-1-ylamino)-4-((2-methoxyethyl) (4-(5,6,7,8-tetrahydro-1,8-naphthyridin-2-yl)butyl)amino) butanoic acid]
> 1000	COCCN(CCCCc1ccc2c(n1)NCCC2)CC[C@H](Nc1ccnc2ccccc12)C(=O)O [Compound 36, (S)-4-((2-methoxyethyl) (4-(5,6,7,8-tetrahydro-1,8-naphthyridin-2-yl)butyl)amino)-2-(quinolin-4-ylamino) butanoic acid]
< 50	COCCN(CCCCc1ccc2c(n1)NCCC2)CC[C@H](Nc1cc(-n2cccn2)ncn1)C(=O)O [Compound 44, (S)-2-((6-(1H-pyrazol-1-yl)pyrimidin-4-yl)amino)-4-((2-methoxyethyl) (4-(5,6,7,8-tetrahydro-1,8-naphthyridin-2-yl)butyl)amino) butanoic acid]
< 50	CO[C@H](C)CN(CCCCc1ccc2c(n1)NCCC2)CC[C@H](Nc1ncnc2ccccc12)C(=O)O [Compound 62, (S)-4-(((R)-2-methoxypropyl) (4-(5,6,7,8-tetrahydro-1,8-naphthyridin-2-yl)butyl)amino)-2-(quinazolin-4-ylamino) butanoic acid]
< 50	CO[C@H](C)CN(CCCCc1ccc2c(n1)NCCC2)CC[C@H](Nc1ncc(C#N)cn1)C(=O)O [Compound 68, (S)-2-((5-cyanopyrimidin-2-yl)amino)-4-(((R)-2-methoxypropyl) (4-(5,6,7,8-tetrahydro-1,8-naphthyridin-2-yl)butyl)amino) butanoic acid]
< 50	O=C(O)[C@H](CCN(CCO)CCCCc1ccc2c(n1)NCCC2)Nc1ncnc2ccccc12 [Compound 75, (S)-4-((2-hydroxyethyl) (4-(5,6,7,8-tetrahydro-1,8-naphthyridin-2-yl)butyl)amino)-2-(quinazolin-4-ylamino) butanoic acid]
< 50	CO[C@H](C)CN(CCCCc1ccc2c(n1)NCCC2)CC[C@H](Nc1cc(-c2ccccc2)ncn1)C(=O)O [Compound 80, (S)-4-(((R)-2-methoxypropyl) (4-(5,6,7,8-tetrahydro-1,8-naphthyridin-2-yl)butyl)amino)-2-((6-phenylpyrimidin-4-yl)amino) butanoic acid]
< 50	CO[C@H](C)CN(CCCCc1ccc2c(n1)NCCC2)CC[C@H](Nc1ncncc1-c1ccccc1)C(=O)O [Compound 81, (S)-4-(((R)-2-methoxypropyl) (4-(5,6,7,8-tetrahydro-1,8-naphthyridin-2-yl)butyl)amino)-2-((5-phenylpyrimidin-4-yl)amino) butanoic acid]
< 50	Cn1ncc2c(N[C@@H](CCN(CCCCc3ccc4c(n3)NCCC4)CCOc3ccccc3)C(=O)O)ncnc21 [Compound 82, (S)-2-((1-methyl-1H-pyrazolo[3,4-d]pyrimidin-4-yl)amino)-4-((2-phenoxyethyl) (4-(5,6,7,8-tetrahydro-1,8-naphthyridin-2-yl)butyl)amino) butanoic acid]
250 to 1000	COC[C@@H](F)CN(CCCCc1ccc2c(n1)NCCC2)CC[C@H](Nc1ncc(C#N)cn1)C(=O)O [Compound 84, (S)-2-((5-cyanopyrimidin-2-yl)amino)-4-(((S)-2-fluoro-3-methoxypropyl) (4-(5,6,7,8-tetrahydro-1,8-naphthyridin-2-yl)butyl)amino) butanoic acid]
> 1000	Cn1ncc2c(N[C@@H](CCN(CCCCc3ccc4c(n3)NCCC4)CC(F)F)C(=O)O)ncnc21 [Compound 88, (S)-4-((2,2-difluoroethyl) (4-(5,6,7,8-tetrahydro-1,8-naphthyridin-2-yl)butyl)amino)-2-((1-methyl-1H-pyrazolo[3,4-d]pyrimidin-4-yl)amino) butanoic acid]
50 to 250	Cn1ncc2c(N[C@@H](CCN(CCCCc3ccc4c(n3)NCCC4)CCS(C)(=O)=O)C(=O)O)ncnc21 [Compound 101, (S)-2-((1-methyl-1H-pyrazolo[3,4-d]pyrimidin-4-yl)amino)-4-((2-(methylsulfonyl)ethyl) (4-(5,6,7,8-tetrahydro-1,8-naphthyridin-2-yl)butyl)amino) butanoic acid]
< 50	CO[C@H](C)CN(CCCCc1ccc2c(n1)NCCC2)CC[C@H](Nc1ccncn1)C(=O)O [Compound 106, (S)-4-(((R)-2-methoxypropyl) (4-(5,6,7,8-tetrahydro-1,8-naphthyridin-2-yl)butyl)amino)-2-(pyrimidin-4-ylamino) butanoic acid]
> 1000	O=C(O)[C@H](CCN(CCCCc1ccc2c(n1)NCCC2)CC(F)F)Nc1ncncc1-c1ccccc1 [Compound 119, (S)-4-((2,2-difluoroethyl) (4-(5,6,7,8-tetrahydro-1,8-naphthyridin-2-yl)butyl)amino)-2-((5-phenylpyrimidin-4-yl)amino) butanoic acid]
< 50	Cn1ncc2c(N[C@@H](CCN(CCCCc3ccc4c(n3)NCCC4)CCOc3ccc(F)cc3)C(=O)O)ncnc21 [Compound 123, (S)-4-((2-(4-fluorophenoxy)ethyl) (4-(5,6,7,8-tetrahydro-1,8-naphthyridin-2-yl)butyl)amino)-2-((1-methyl-1H-pyrazolo[3,4-d]pyrimidin-4-yl)amino) butanoic acid]
< 50	CO[C@H](C)CN(CCCCc1ccc2c(n1)NCCC2)CC[C@H](Nc1ncc(C2CC2)cn1)C(=O)O [Compound 124, (S)-2-((5-cyclopropylpyrimidin-2-yl)amino)-4-(((R)-2-methoxypropyl) (4-(5,6,7,8-tetrahydro-1,8-naphthyridin-2-yl)butyl)amino) butanoic acid]
250 to 1000	COC[C@@H](F)CN(CCCCc1ccc2c(n1)NCCC2)CC[C@H](Nc1ccncn1)C(=O)O [Compound 127, (S)-4-(((S)-2-fluoro-3-methoxypropyl) (4-(5,6,7,8-tetrahydro-1,8-naphthyridin-2-yl)butyl)amino)-2-(pyrimidin-4-ylamino) butanoic acid]
> 1000	COC[C@@H](F)CN(CCCCc1ccc2c(n1)NCCC2)CC[C@H](Nc1cc(-c2ccccc2)ncn1)C(=O)O [Compound 128, (S)-4-(((S)-2-fluoro-3-methoxypropyl) (4-(5,6,7,8-tetrahydro-1,8-naphthyridin-2-yl)butyl)amino)-2-((6-phenylpyrimidin-4-yl)amino) butanoic acid]
50 to 250	O=C(O)[C@H](CCN(CCCCc1ccc2c(n1)NCCC2)CCC(F)F)Nc1ncc(Br)cn1 [Compound 131, (S)-2-((5-bromopyrimidin-2-yl)amino)-4-((3,3-difluoropropyl) (4-(5,6,7,8-tetrahydro-1,8-naphthyridin-2-yl)butyl)amino) butanoic acid]
50 to 250	O=C(O)[C@H](CCN(CCCCc1ccc2c(n1)NCCC2)CCC(F)F)Nc1ncc(C2CC2)cn1 [Compound 135, (S)-2-((5-cyclopropylpyrimidin-2-yl)amino)-4-((3,3-difluoropropyl) (4-(5,6,7,8-tetrahydro-1,8-naphthyridin-2-yl)butyl)amino) butanoic acid]
< 50	Cn1ncc2c(N[C@@H](CCN(CCCF)CCCCc3ccc4c(n3)NCCC4)C(=O)O)ncnc21 [Compound 136, (S)-4-((3-fluoropropyl) (4-(5,6,7,8-tetrahydro-1,8-naphthyridin-2-yl)butyl)amino)-2-((1-methyl-1H-pyrazolo[3,4-d]pyrimidin-4-yl)amino) butanoic acid]
